Reference: patent US11542249B2, “BTK inhibitor compounds” (Eli Lilly and Company, priority 2017, dated 2023)

How the values were obtained:
human BTK = human BTK (Homo sapiens (Human), UniProt Q06187); test: BTK LANTHASCREEN Eu Kinase Binding Assay; settings: IC50 value ± standard deviation; full-length His-labeled BTK, kinase tracer 236; read-out: hBTK Rel IC50
Protocol: (§1) BTK and EGFR in Vitro Assays:
(§2) The BTK and EGFR biochemical assays utilize LANTHASCREEN® Eu Kinase Binding Assays from Thermo Fisher Scientific, measuring the binding of the kinase with a […] tracer. The assay buffer consists of 50 mM HEPES pH 7.5, 0.01% BRU™-35, 10 mM MgCl2, 1 mM EGTA, and 1 mM DTT. The test compounds are diluted and added to the assay plate with a Labcyte ECHO® 555 liquid handler. The compounds are tested in 10 point dose response curves (100 μM-0.005 μM) with a maximum DMSO concentration of 1%. The assays are performed in 20 μL in low-volume 384-well white proxiplates. For the BTK assay, the concentration of full-length His-labeled BTK in the assay is 5 nM, the Eu-anti-His antibody is 2 nM, and the kinase tracer 236 is 60 nM. For the EGFR assay, the concentration of truncated (amino acids 668-1210) GST-labeled EGFR is 5 nM, the Eu-anti-GST antibody is 2 nM, and the kinase tracer 199 is 10 nM. The components of the assay (compound, enzyme/antibody, tracer) are assembled and incubated for 30 min prior to being read on a Perkin-Elmer EnVision with excitation at 340 nm, tracer emission at 665 nm, and antibody emission at 615 nm. The signal ratio is converted to percent inhibition using the following equation: % Inhibition=100−[(Test Compound−Median Minimum)/(Median Maximum−Median Minimum)×100].
(§3) The following Table 1 and Table 2 describes the relative IC50 data vs. human BTK, human EGFR, and human whole blood CD69.

human EGFR = human EGFR (Homo sapiens (Human), UniProt P00533); test: EGFR LANTHASCREEN Eu Kinase Binding Assay; settings: IC50 value ± standard deviation; truncated GST-labeled EGFR, kinase tracer 199; read-out: hEGFR Rel IC50
Protocol: as §1, §2

[1] = tested on: activated B cells in human whole blood (CD69); test: Human Whole Blood CD69 in vitro assay (B cell activation, flow cytometry); assay type: cell-based; settings: IC50 value ± standard deviation, anti-human-IgD-Dextran stimulation, read-out: HWB CD69 Rel IC50
Protocol: Human Whole Blood CD69 in Vitro Assay:
The HWB CD69 assay measures activated B cells in human whole blood using a flow cytometer. Compounds are diluted and added to assay plates with a Labcyte ECHO® 555 liquid handler. Compounds are tested in 10 point dose response curves (20 μM-0.001 μM) in 96-well v-bottom plates with a maximum DMSO concentration of 0.2%. Fresh blood from individual healthy volunteer is mixed with HEPES (0.5 ml HEPES added per 10 ml blood) and 100 μl/well is added to compound plates. The plates are sealed and incubated in a 37° C. incubator for 3 h. Anti-human-IgD-Dextran is added to each well to give a final concentration of 100 ng/ml, mixed, and put back into the incubator. After 1 h, the cells are washed with cold FACS buffer and transferred to a deep well plate. The cells are incubated with anti-human CD69-PE (BIOLEGEND®, clone FN50) and anti-human CD19-APC (BIOLEGEND®, clone HIB19) antibodies on ice for 20 min. The cells are washed and incubated in eBioscience™ 1-step Fix/Lyse solution (10×) at RT to lyse the red blood cells and fix the other cells. The white cells are pelleted and washed in FACS buffer and then brought up in read buffer. The suspended cells are transferred to 96-well round bottom plates and read on an IntelliCyt iQue® Screener Plus flow cytometer. From the SSC (Side Scatter Channel) vs FSC (Forward Scatter Channel) graph, the lymphocytes are identified. Lymphocytes are identified with gated on positive CD19 marker for quantify CD69 (a marker of activated B lymphocytes) MFI (mean fluorescent intensity/cell). The signal ratio is converted to percent inhibition using the following equation: % Inhibition=100−[(Test Compound−Median Min)/(Median Max−Median Min)×100].
as §3

Rat Oral Bioavailability = assay type: in vivo, Sprague-Dawley rats; settings: Sprague-Dawley, plasma, PO 3 mg/kg vs IV 1 mg/kg, read-out: Rat Oral Bioavailability (% F)
Protocol: The test compound is administered to Sprague-Dawley rats intravenously (IV) at 1 mg/kg (using vehicles of either: 20% CAPTISOL® in 25 mM sodium phosphate buffer, pH2 quantum satis; or 25% DMA, 15% EtOH, 10% propylene glycol, 25% 2-pyrrolidone, and 25% purified water) and orally (PO) at 3 mg/kg (using a vehicle of 1% hydroxyethyl cellulose, 0.25% polysorbate 80, 0.05% Antifoam 1510-US, and purified water quantum satis). Serial blood samples are collected at 0.08, 0.25, 0.5, 1, 2, 4, 8, and 12 h post dose for IV bolus and at 0.25, 0.5, 1, 2, 4, 8, and 12 h post dose after oral administration. After treatment with an EDTA […], plasma is obtained by centrifugation and stored at −70° C. until analysis by LC-MS/MS. Test article concentration is determined in plasma and uploaded into the Watson LIMS™ system where noncompartmental analysis is used to calculate Area Under the Curve (AUC) for both IV and PO arms. Bioavailability (% F) is calculated via the following equation, %F=(AUCPO×DoseIV)/(AUCIV×DosePO)×100. Table 3 indicates the rat oral bioavailability of select BTK inhibitors.

human BTK, sequence (Q06187 whole entry): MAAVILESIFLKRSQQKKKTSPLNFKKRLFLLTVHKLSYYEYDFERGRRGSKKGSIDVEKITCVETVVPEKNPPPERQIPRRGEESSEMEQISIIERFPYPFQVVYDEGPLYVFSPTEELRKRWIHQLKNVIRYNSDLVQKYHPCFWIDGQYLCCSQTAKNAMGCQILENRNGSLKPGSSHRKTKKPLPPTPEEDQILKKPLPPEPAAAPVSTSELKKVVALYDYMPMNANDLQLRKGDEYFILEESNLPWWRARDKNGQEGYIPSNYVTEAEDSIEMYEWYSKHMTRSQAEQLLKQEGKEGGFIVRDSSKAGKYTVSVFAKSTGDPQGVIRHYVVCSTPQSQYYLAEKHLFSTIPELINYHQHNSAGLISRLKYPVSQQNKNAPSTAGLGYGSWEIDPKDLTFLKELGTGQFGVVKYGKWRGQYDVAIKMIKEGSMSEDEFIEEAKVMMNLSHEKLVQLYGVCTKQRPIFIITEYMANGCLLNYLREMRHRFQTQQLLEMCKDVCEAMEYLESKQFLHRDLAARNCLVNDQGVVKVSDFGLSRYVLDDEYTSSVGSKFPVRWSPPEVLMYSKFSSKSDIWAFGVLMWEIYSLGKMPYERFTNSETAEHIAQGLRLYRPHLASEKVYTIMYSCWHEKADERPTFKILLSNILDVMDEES
human EGFR, sequence (P00533 668-1210): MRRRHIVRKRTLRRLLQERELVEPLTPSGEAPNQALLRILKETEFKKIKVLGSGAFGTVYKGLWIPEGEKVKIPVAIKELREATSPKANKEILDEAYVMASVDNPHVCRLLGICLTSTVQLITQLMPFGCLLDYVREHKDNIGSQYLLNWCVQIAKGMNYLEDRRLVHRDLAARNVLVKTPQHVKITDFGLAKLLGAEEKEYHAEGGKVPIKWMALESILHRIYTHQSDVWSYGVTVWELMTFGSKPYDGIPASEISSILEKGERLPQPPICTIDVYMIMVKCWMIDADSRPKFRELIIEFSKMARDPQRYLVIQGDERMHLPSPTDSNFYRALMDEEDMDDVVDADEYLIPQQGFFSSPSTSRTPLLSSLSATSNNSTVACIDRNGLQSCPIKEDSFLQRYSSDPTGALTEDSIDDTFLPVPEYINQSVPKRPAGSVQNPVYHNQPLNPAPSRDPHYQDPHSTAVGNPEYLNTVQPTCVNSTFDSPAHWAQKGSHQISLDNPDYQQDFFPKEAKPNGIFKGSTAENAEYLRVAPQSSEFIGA

Row | SMILES | IC50 (human BTK) [nM] | IC50 (human EGFR) [nM] | IC50 [1] [nM] | bioavailability (Rat Oral Bioavailability) [%]
1 | C=CC(=O)N1CCC(Nc2cncc(-c3cnc(Nc4cccc(Cl)c4)nc3)c2)CC1 [Example 19, 1-[4-[[5-[2-(3-chloroanilino)pyrimidin-5-yl]-3-pyridyl]amino]-1-piperidyl]prop-2-en-1-one] | < 5 | 523 ± 112 | 148 ± 33.1 | 79.2
2 | C=CC(=O)N1CC(Nc2cncc(-c3cnc(Oc4ccccc4)nc3)n2)C1 [Example 28, 1-[3-[[6-(2-phenoxypyrimidin-5-yl)pyrazin-2-yl]amino]azetidin-1-yl]prop-2-en-1-one] | 42.9 ± 5.09 | 1470 ± 209 | 742 ± 323 | –
3 | C=CC(=O)N1CC(Nc2cncc(-c3cnc(Oc4ccc(F)c(Cl)c4)nc3)c2)C1 [Example 13, 1-[3-[[5-[2-(3-chloro-4-fluoro-phenoxy)pyrimidin-5-yl]-3-pyridyl]amino]azetidin-1-yl]prop-2-en-1-one] | 38.2 ± 16.9 | 450 ± 53.2 | 715 ± 93.5 | –
4 | C=CC(=O)N1CC(C)(Nc2cncc(-c3cnc(Oc4cccc(Cl)c4)nc3)n2)C1 [Example 29, 1-[3-[[6-[2-(3-chlorophenoxy)pyrimidin-5-yl]pyrazin-2-yl]amino]-3-methyl-azetidin-1-yl]prop-2-en-1-one] | 17.7 ± 1.35 | 3470 ± 911 | 584 ± 372 | –
5 | C=CC(=O)N1CC(Nc2cncc(-c3cnc(Oc4cccc(F)c4)nc3)n2)C1 [Example 25, 1-[3-[[6-[2-(3-fluorophenoxy)pyrimidin-5-yl]pyrazin-2-yl]amino]azetidin-1-yl]prop-2-en-1-one] | 19.3 ± 3.28 | 1580 ± 110 | 306 ± 63.6 | –
6 | C#Cc1cccc(Oc2ncc(-c3cncc(NC4CN(C(=O)C=C)C4)c3)cn2)c1 [Example 14, 1-[3-[[5-[2-(3-ethynylphenoxy)pyrimidin-5-yl]-3-pyridyl]amino]azetidin-1-yl]prop-2-en-1-one] | 17.8 ± 3.77 | 242 ± 231 | 299 ± 143 | –
7 | C=CC(=O)N1CC(Nc2cncc(-c3cnc(Oc4cccc(OC(F)F)c4)nc3)c2)C1 [Example 4, 1-[3-[[5-[2-[3-(difluoromethoxy)phenoxy]pyrimidin-5-yl]-3-pyridyl]amino]azetidin-1-yl]prop-2-en-1-one] | 9.98 ± 4.3 | 872 ± 456 | 110 ± 79.4 | –
8 | C=CC(=O)N1CC(Nc2cncc(-c3cnc(Oc4ccc(F)c(OC(F)F)c4)nc3)c2)C1 [Example 9, 1-[3-[[5-[2-[3-(difluoromethoxy)-4-fluoro-phenoxy]pyrimidin-5-yl]-3-pyridyl]amino]azetidin-1-yl]prop-2-en-1-one] | 60.6 ± 0.351 | 3760 ± 1400 | 655 ± 295 | –
9 | C=CC(=O)N1CC(Nc2cncc(-c3cnc(Oc4cccc(Cl)c4F)nc3)c2)C1 [Example 2, 1-[3-[[5-[2-(3-chloro-2-fluoro-phenoxy)pyrimidin-5-yl]-3-pyridyl]amino]azetidin-1-yl]prop-2-en-1-one] | 6.89 ± 2.62 | 121 ± 66.4 | 141 ± 41.3 | –
10 | C=CC(=O)N1CC(C)(Nc2cncc(-c3cnc(Oc4cccc(Cl)c4)nc3)c2)C1 [Example 12, 1-[3-[[5-[2-(3-chlorophenoxy)pyrimidin-5-yl]-3-pyridyl]amino]-3-methyl-azetidin-1-yl]prop-2-en-1-one] | 6.95 ± 0.395 | 509 ± 246 | 200 ± 52.4 | –

More lines, now with the values ahead:

Row | IC50 (human BTK) [nM] | IC50 (human EGFR) [nM] | IC50 [1] [nM] | bioavailability (Rat Oral Bioavailability) [%] | SMILES
11 | 5.6 | 1460 ± 200 | 103 ± 60.6 | – | C=CC(=O)N1CC[C@H](Nc2cncc(-c3cnc(Nc4cccc(OC(F)F)c4)nc3)n2)C1 [Example 39, 1-[(3S)-3-[[6-[2-[3-(difluoromethoxy)anilino]pyrimidin-5-yl]pyrazin-2-yl]amino]pyrrolidin-1-yl]prop-2-en-1-one]
12 | < 5 | 306 ± 33.8 | 136 ± 66.8 | – | C=CC(=O)N1CC(Nc2cncc(-c3cnc(Nc4cccc(OC(F)(F)F)c4)nc3)n2)C1 [Example 37, 1-[3-[[6-[2-[3-(trifluoromethoxy)anilino]pyrimidin-5-yl]pyrazin-2-yl]amino]azetidin-1-yl]prop-2-en-1-one]
13 | 6.11 | 207 ± 31.9 | 126 ± 29.7 | 36.8 | C=CC(=O)N1CCC(Nc2cncc(-c3cnc(Oc4cccc(Cl)c4)nc3)n2)CC1 [Example 44, 1-[4-[[6-[2-(3-chlorophenoxy)pyrimidin-5-yl]pyrazin-2-yl]amino]-1-piperidyl]prop-2-en-1-one]
14 | 5.58 ± 0.182 | 54.9 ± 15.4 | 144 ± 53.4 | – | C=CC(=O)N1CC(Nc2cncc(-c3cnc(Nc4cccc(C)n4)nc3)n2)C1 [Example 40, 1-[3-[[6-[2-[(6-methyl-2-pyridyl)amino]pyrimidin-5-yl]pyrazin-2-yl]amino]azetidin-1-yl]prop-2-en-1-one]
15 | 96.8 ± 15.6 | 2110 ± 487 | 2160 ± 420 | – | C=CC(=O)N1CC(Nc2cncc(-c3cnc(Oc4ccc(Cl)cc4)nc3)n2)C1 [Example 41, 1-[3-[[6-[2-(4-chlorophenoxy)pyrimidin-5-yl]pyrazin-2-yl]amino]azetidin-1-yl]prop-2-en-1-one]
16 | 43.2 ± 11.9 | 1080 ± 229 | 815 ± 110 | – | C=CC(=O)N1CC(Nc2cncc(-c3cnc(Oc4cc(F)cc(F)c4)nc3)n2)C1 [Example 30, 1-[3-[[6-[2-(3,5-difluorophenoxy)pyrimidin-5-yl]pyrazin-2-yl]amino]azetidin-1-yl]prop-2-en-1-one]
17 | 18.3 | 639 ± 256 | 130 ± 44.7 | – | C=CC(=O)N1CC[C@H](Nc2cncc(-c3cnc(Nc4cccc(Cl)c4)nc3)n2)C1 [Example 34, 1-[(3S)-3-[[6-[2-(3-chloroanilino)pyrimidin-5-yl]pyrazin-2-yl]amino]pyrrolidin-1-yl]prop-2-en-1-one]
